Assay [1] concerns MN (HIV-1 strain). The settings on record: read-out: IC50 MN; pseudovirus, TZM-BL cells.
The target in assay [2] is viral glycoproteins (H and F); Nectin-4 (Measles virus, UniProt Q786F3). In words: beta-galactosidase complementation-based fusion assay, Nectin-4 target cells.
In assay [3] the test system is B41 (HIV-1 strain). The settings on record: read-out: IC50 B41; pseudovirus, TZM-BL cells.
Assay [4] relates to vesicular stomatitis virus (VSV). The note with it: 16 h.
For assay [5], the system named is BG505 (HIV-1 strain). The settings on record: read-out: IC50 BG505; pseudovirus, TZM-BL cells.
Assay [6] has as its system 16055 (HIV-1 strain). The settings on record: read-out: IC50 16055; pseudovirus, TZM-BL cells.
The subject of assay [7] is murine leukemia viruses (MLV). The settings on record: read-out: IC50 MLV; pseudovirus, TZM-BL cells.
The subject of assay [8] is wt MeV. The note with it: in vitro, ex vivo; cited from earlier work.
Assay [9] has as its target viral glycoproteins (H and F); CD150. Briefly: beta-galactosidase complementation-based fusion assay, CD150 target cells. The settings on record: for IC90: read-out: CD150 IC90.
The subject of assay [10] is MeV “WTFb” strain. In words: in vivo efficacy, intranasal peptides in MeV-infected cotton rats. The note with it: intranasal 24 h and 12 h before infection, 5 m/kg dose, 4 days post-infection. The protocol: FIGS. 84-93 further describe the invention. […] Intranasal administration of MeV-derived peptides protects cotton rats from MV infection. Cotton rats (n=4) were infected intranasally with MeV “WTFb” strain. Treatment was given intranasally 24 h and 12 h before infection in 100 ul (5 m/kg dose of peptides). The animals were euthanized 4 days post-infection.

Assay [11] relates to MeV IC323-EGFP-F L454W. Briefly: organotypic brain cultures (OBC) infected with MeV bearing L454W F. It is filed as cell-based, mice.
Assay [12] deals with virus bearing L454W F. Briefly: lethal infection of suckling mice, intranasal peptide. The note with it: intranasal administration.
In assay [13] the target is T1, soluble MeV F (Measles virus, UniProt Q786F3).
T1 construct: produced in a soluble form, with the ablation of the intracytoplasmic and transmembrane domains; Tobacco Etch Virus protease site (C); foldomer (trimerization) domain (C); 6xHis (C); made in house; host or cells: 293T (culture supernatant)
Format: biochemical. The note with it: peptide in culture medium, supernatant 24 hours post transfection.

Assay [14] deals with soluble MeV F. It is filed as biochemical, measles virus.

Entries after “also recorded” stand apart in the source; their conditions may differ. Where two headings read alike, the source gives them in different places. Square brackets hold non-standard residues; d marks the D form. Peptide text beside a SMILES is read from it. * marks the point of attachment. Cbz = O=C(OCc1ccccc1)*

viral glycoproteins (H and F); Nectin-4, sequence (Q786F3 24-112): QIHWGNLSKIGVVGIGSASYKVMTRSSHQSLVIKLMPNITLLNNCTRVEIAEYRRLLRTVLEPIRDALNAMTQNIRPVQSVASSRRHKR
viral glycoproteins (H and F); CD150, sequence (Q786F3 24-112): as above
viral glycoproteins (H and F); CD150, sequence (Q786F3 113-550): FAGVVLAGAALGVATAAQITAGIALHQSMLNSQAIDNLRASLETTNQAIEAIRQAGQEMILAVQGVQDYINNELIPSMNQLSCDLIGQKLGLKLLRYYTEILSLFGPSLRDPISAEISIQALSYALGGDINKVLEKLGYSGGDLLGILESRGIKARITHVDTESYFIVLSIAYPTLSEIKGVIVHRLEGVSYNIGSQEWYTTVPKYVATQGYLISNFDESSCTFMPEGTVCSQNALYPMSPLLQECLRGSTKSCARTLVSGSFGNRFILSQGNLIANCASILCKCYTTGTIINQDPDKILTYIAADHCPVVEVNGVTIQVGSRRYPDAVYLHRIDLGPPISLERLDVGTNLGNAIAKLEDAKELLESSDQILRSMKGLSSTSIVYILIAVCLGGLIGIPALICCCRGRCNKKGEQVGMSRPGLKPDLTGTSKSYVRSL
T1 sequence (Q786F3 113-494, added parts left off): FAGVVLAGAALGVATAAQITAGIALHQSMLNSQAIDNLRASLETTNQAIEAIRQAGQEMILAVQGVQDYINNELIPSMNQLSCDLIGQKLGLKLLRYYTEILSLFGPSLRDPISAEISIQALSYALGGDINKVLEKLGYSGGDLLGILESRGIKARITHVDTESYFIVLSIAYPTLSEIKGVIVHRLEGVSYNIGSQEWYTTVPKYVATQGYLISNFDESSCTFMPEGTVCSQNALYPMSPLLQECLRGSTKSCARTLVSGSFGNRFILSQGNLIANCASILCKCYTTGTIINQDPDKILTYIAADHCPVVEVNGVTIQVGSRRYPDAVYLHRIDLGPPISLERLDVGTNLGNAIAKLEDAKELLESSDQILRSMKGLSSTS
T1 sequence (Q786F3 24-112): as the sequence (Q786F3 24-112) above

The IC50 is the concentration needed to halve the response being measured. The term IC90 denotes the point of the concentration-response curve where the effect stands at 90%. Regarding `O=C(CNC(=O)[C@H](Cc1ccccc1)NC(=O)[C@@H](Cc1ccccc1)NC(=O)OCc1ccccc1)NCC(=O)N[C@@H](CO)C(=O)NCC(=O)N[C@@H](CO)C(=O)NCC(=O)N[C@@H](CS)C(=O)O` [FIP, Z-D-FFG-GSGSG-C (SEQ ID NO. 52)] (Cbz-[dF]FGGSGSGC-OH), the IC50 in assay [1] is > 5000 nM; in assay [2] (IC50, Table 2 (salient peptides), Nectin-4 target cells), 9720 ± 2730 nM; in assay [2] (Nectin4 IC50, Table 3 (extended version)), 9720 ± 2730 nM; in [3], > 5000 nM; in [4] it was > 5000 nM; in [5] it was > 5000 nM. In addition, the IC50 in assay [6] and in assay [7] was > 5000 nM each time. Besides, the IC90 in assay [2] and in assay [2] (read-out: Nectin4 IC90) was > 10000 nM throughout.
`CC[C@H](C)[C@H](NC(=O)[C@H](C)NC(=O)[C@H](CC(N)=O)NC(=O)CNC(=O)[C@H](CC(C)C)NC(=O)[C@H](CC(N)=O)NC(=O)[C@@H](NC(=O)CNC(=O)[C@@H](NC(=O)[C@H](CC(=O)O)NC(=O)[C@H](CC(C)C)NC(=O)[C@H](CCCNC(=N)N)NC(=O)[C@H](CCC(=O)O)NC(=O)[C@H](CC(C)C)NC(=O)[C@H](CO)NC(=O)[C@@H](NC(=O)[C@@H]1CCCN1C(=O)[C@@H]1CCCN1C(C)=O)[C@@H](C)CC)C(C)C)[C@@H](C)O)C(=O)N[C@@H](C)C(=O)N[C@@H](CCCCN)C(=O)N[C@@H](CC(C)C)C(=O)N[C@@H](CCC(=O)O)C(=O)N[C@@H](CC(=O)O)C(=O)N[C@@H](C)C(=O)N[C@@H](CCCCN)C(=O)N[C@@H](CCC(=O)O)C(=O)N[C@@H](CC(C)C)C(=O)N[C@@H](CC(C)C)C(=O)N[C@@H](CCC(=O)O)C(=O)N[C@@H](CO)C(=O)N[C@@H](CO)C(=O)N[C@@H](CC(=O)O)C(=O)N[C@@H](CCC(N)=O)C(=O)N[C@H](C(=O)N[C@@H](CC(C)C)C(=O)N[C@@H](CCCNC(=N)N)C(=O)NCC(=O)N[C@@H](CO)C(=O)NCC(=O)N[C@@H](CO)C(=O)NCC(=O)N[C@@H](CSC1CC(=O)N(CCCC(=O)NCCOCCOCCOCCOCCC(=O)NCCN(CCNC(=O)CCOCCOCCOCCOCCNC(=O)CCCN2C(=O)CC(SC[C@H](NC(=O)CNC(=O)[C@H](CO)NC(=O)CNC(=O)[C@H](CO)NC(=O)CNC(=O)[C@H](CCCNC(=N)N)NC(=O)[C@H](CC(C)C)NC(=O)[C@@H](NC(=O)[C@H](CCC(N)=O)NC(=O)[C@H](CC(=O)O)NC(=O)[C@H](CO)NC(=O)[C@H](CO)NC(=O)[C@H](CCC(=O)O)NC(=O)[C@H](CC(C)C)NC(=O)[C@H](CC(C)C)NC(=O)[C@H](CCC(=O)O)NC(=O)[C@H](CCCCN)NC(=O)[C@H](C)NC(=O)[C@H](CC(=O)O)NC(=O)[C@H](CCC(=O)O)NC(=O)[C@H](CC(C)C)NC(=O)[C@H](CCCCN)NC(=O)[C@H](C)NC(=O)[C@@H](NC(=O)[C@H](C)NC(=O)[C@H](CC(N)=O)NC(=O)CNC(=O)[C@H](CC(C)C)NC(=O)[C@H](CC(N)=O)NC(=O)[C@@H](NC(=O)CNC(=O)[C@@H](NC(=O)[C@H](CC(=O)O)NC(=O)[C@H](CC(C)C)NC(=O)[C@H](CCCNC(=N)N)NC(=O)[C@H](CCC(=O)O)NC(=O)[C@H](CC(C)C)NC(=O)[C@H](CO)NC(=O)[C@@H](NC(=O)[C@@H]3CCCN3C(=O)[C@@H]3CCCN3C(C)=O)[C@@H](C)CC)C(C)C)[C@@H](C)O)[C@@H](C)CC)[C@@H](C)CC)C(=O)O)C2=O)CCO[C@H]2CC[C@@]3(C)C(=CC[C@H]4[C@@H]5CC[C@H]([C@H](C)CCCC(C)C)[C@@]5(C)CC[C@@H]43)C2)C1=O)C(=O)O)[C@@H](C)CC` (stereo partly shown) [[HRC450-485-peg4]2-chol]: the IC50 turned out to be 125 ± 175 nM in assay [2] and 100 ± 65.1 nM in assay [9]. In addition, the IC90 in assay [2] is 378 ± 300 nM; in assay [2] (read-out: Nectin4 IC90) it was 378 ± 300 nM; in assay [9], 698 ± 22.3 nM. The “blocking of wt MeV infection (previous work)” value in [8] is “blocks infection with wt MeV in vitro, ex vivo and in vivo in cotton rats and mice”. Besides, in [10], the “MeV titration of lung homogenates” value is “reduces the viral titer compared to the untreated animals”. In addition, the “spread of virus in OBC (fluorescence)” value is “only partially inhibitory” in [11] (10 nM); “only isolated single infected cells were observed” in assay [11] (100 nM); “blocks the spread of MeV-IC323-EGFP-F L454W” in assay [11] (either 100 nM or 10 nM, four days after infection). Moreover, in [11] (IFNAR1KO OBC, 10 nM, treated post-infection, vs untreated), the “reduction in the number of MeV N RNA copies” value worked out at 4 fold. Moreover, the “reduction of the viral load (MeV N RNA copies, RT-qPCR)” value in [11] (IFNAR1KO OBC, 100 nM, treated post-infection, vs untreated) was determined as 2 log. In [11] (IFNAR1KO OBC, concentrations below 10 nM), the “variation of the viral load” value is “No significant variation of the viral load”. The “dissemination of virus in OBC expressing human CD150 (SLAM)” value in [11] (OBC from IFNAR1KO mice expressing human CD150, highest concentration) is reported as “blocked dissemination of MeV IC323-EGFP-F L454W at least as well as WT virus”. In assay [12], the “protection from lethal infection” value was “protects suckling mice from lethal infection”.
Regarding `CC[C@H](C)[C@H](NC(=O)[C@H](C)NC(=O)[C@H](CC(N)=O)NC(=O)CNC(=O)[C@H](CC(C)C)NC(=O)[C@H](CC(N)=O)NC(=O)[C@@H](NC(=O)CNC(=O)[C@@H](NC(=O)[C@H](CC(=O)O)NC(=O)[C@H](CC(C)C)NC(=O)[C@H](CCCNC(=N)N)NC(=O)[C@H](CCC(=O)O)NC(=O)[C@H](CC(C)C)NC(=O)[C@H](CO)NC(=O)[C@@H](NC(=O)[C@@H]1CCCN1C(=O)[C@@H]1CCCN1C(=O)CNC(=O)[C@H](CO)NC(=O)CNC(=O)[C@H](CO)NC(=O)CNC(=O)CNC(=O)[C@H](Cc1ccccc1)NC(=O)[C@@H](Cc1ccccc1)NC(=O)OCc1ccccc1)[C@@H](C)CC)C(C)C)[C@@H](C)O)C(=O)N[C@@H](C)C(=O)N[C@@H](CCCCN)C(=O)N[C@@H](CC(C)C)C(=O)N[C@@H](CCC(=O)O)C(=O)N[C@@H](CC(=O)O)C(=O)N[C@@H](C)C(=O)N[C@@H](CCCCN)C(=O)N[C@@H](CCC(=O)O)C(=O)N[C@@H](CC(C)C)C(=O)N[C@@H](CC(C)C)C(=O)N[C@@H](CCC(=O)O)C(=O)N[C@@H](CO)C(=O)N[C@@H](CO)C(=O)N[C@@H](CC(=O)O)C(=O)N[C@@H](CCC(N)=O)C(=O)N[C@H](C(=O)N[C@@H](CC(C)C)C(=O)N[C@@H](CCCNC(=N)N)C(=O)NCC(=O)N[C@@H](CO)C(=O)NCC(=O)N[C@@H](CO)C(=O)NCC(=O)N[C@@H](CSC1CC(=O)N(CCC(=O)NCCOCCOCCOCCOCCOCCOCCOCCOCCOCCOCCOCCNC(=O)CCN2C(=O)CC(SC[C@H](NC(=O)CNC(=O)[C@H](CO)NC(=O)CNC(=O)[C@H](CO)NC(=O)CNC(=O)[C@H](CCCNC(=N)N)NC(=O)[C@H](CC(C)C)NC(=O)[C@@H](NC(=O)[C@H](CCC(N)=O)NC(=O)[C@H](CC(=O)O)NC(=O)[C@H](CO)NC(=O)[C@H](CO)NC(=O)[C@H](CCC(=O)O)NC(=O)[C@H](CC(C)C)NC(=O)[C@H](CC(C)C)NC(=O)[C@H](CCC(=O)O)NC(=O)[C@H](CCCCN)NC(=O)[C@H](C)NC(=O)[C@H](CC(=O)O)NC(=O)[C@H](CCC(=O)O)NC(=O)[C@H](CC(C)C)NC(=O)[C@H](CCCCN)NC(=O)[C@H](C)NC(=O)[C@@H](NC(=O)[C@H](C)NC(=O)[C@H](CC(N)=O)NC(=O)CNC(=O)[C@H](CC(C)C)NC(=O)[C@H](CC(N)=O)NC(=O)[C@@H](NC(=O)CNC(=O)[C@@H](NC(=O)[C@H](CC(=O)O)NC(=O)[C@H](CC(C)C)NC(=O)[C@H](CCCNC(=N)N)NC(=O)[C@H](CCC(=O)O)NC(=O)[C@H](CC(C)C)NC(=O)[C@H](CO)NC(=O)[C@@H](NC(=O)[C@@H]3CCCN3C(=O)[C@@H]3CCCN3C(=O)CNC(=O)[C@H](CO)NC(=O)CNC(=O)[C@H](CO)NC(=O)CNC(=O)CNC(=O)[C@H](Cc3ccccc3)NC(=O)[C@@H](Cc3ccccc3)NC(=O)OCc3ccccc3)[C@@H](C)CC)C(C)C)[C@@H](C)O)[C@@H](C)CC)[C@@H](C)CC)C(=O)O)C2=O)C1=O)C(=O)O)[C@@H](C)CC` (stereo partly shown) [[FIP-HRC450-485]2-peg11], the IC50 in [2] was found to be 528 ± 635 nM; in assay [9] it was 278 ± 229 nM. The IC90 in assay [2] was 1180 ± 979 nM; in assay [2] (read-out: Nectin4 IC90), 1180 ± 979 nM; in assay [9], 916 ± 162 nM. Also, the “stabilization of wt soluble F in pre-fusion state” value in assay [13] is listed as “stabilize the wt soluble F”; in assay [13] (listed as FIP-HRC-PEG11-dimer), “wt F protein remains in its pre-fusion state”. Moreover, in [14] (55° C., 1 mM peptide, compared with FIP commercial, FIP dimer, 3 g), the “stabilization of soluble F by FIP-HRC (dimer without cholesterol), FIGS. 117A-E” value is “remains in its pre-fusion state incubation at 55 °C for up to two hours; also recorded: wt F is partially stabilized; also recorded: superior to commercially available stabilizer like the commercial FIP and 3 g”. Also, in [14] (wt, E455G, E170G E455G soluble F, 45° C. or 55° C. for 30', 1 uM peptide), the “stabilization of soluble F proteins on heating” value is “stabilize all the soluble F protein at both 45 °C and 55 °C”.
